The NIST ThermoML archive (doi:10.1021/je049672l)

Details: for mass density: Vibrating tube method; for vapor or sublimation pressure: Closed cell (Static) method

CC(C)C [2-methylpropane]
Fluid (supercritical or subcritical phases)
Details	mass density [kg/m3]
240 K, 484.1 kPa	617.68
240 K, 1027.4 kPa	618.3
240 K, 1538.4 kPa	618.86
240 K, 2037.8 kPa	619.41
240 K, 2522.8 kPa	619.95
240 K, 3029.3 kPa	620.49
240 K, 3501.9 kPa	621
240 K, 4038.4 kPa	621.58
240 K, 4542.1 kPa	622.1
240 K, 5022.8 kPa	622.62
240 K, 5522.1 kPa	623.14
240 K, 5987.3 kPa	623.62
240 K, 6540.8 kPa	624.19
240 K, 7010.9 kPa	624.66
260 K, 517.1 kPa	595.93
260 K, 947.4 kPa	596.52
260 K, 1503.8 kPa	597.28
260 K, 1984.7 kPa	597.94
260 K, 2532 kPa	598.66
260 K, 3005.3 kPa	599.28
260 K, 3472.2 kPa	599.9
260 K, 4015.9 kPa	600.6
260 K, 4464.7 kPa	601.16
260 K, 4915.7 kPa	601.73
260 K, 5481.6 kPa	602.44
260 K, 5953.7 kPa	603.05
260 K, 6532 kPa	603.75
260 K, 7031.7 kPa	604.37
280 K, 512.2 kPa	573.26
280 K, 996 kPa	574.1
280 K, 1532.9 kPa	575.01
280 K, 2000.6 kPa	575.8
280 K, 2508.1 kPa	576.64
280 K, 2999.4 kPa	577.44
280 K, 3506 kPa	578.27
280 K, 4015.2 kPa	579.09
280 K, 4460.5 kPa	579.8
280 K, 4938.8 kPa	580.54
280 K, 5494.5 kPa	581.39
280 K, 5986.9 kPa	582.16
280 K, 6507.2 kPa	582.93
280 K, 6980.4 kPa	583.64
300 K, 476.5 kPa	548.51
300 K, 1017.6 kPa	549.71
300 K, 1462.4 kPa	550.7
300 K, 1999.9 kPa	551.86
300 K, 2533.3 kPa	552.99
300 K, 3021.3 kPa	554.01
300 K, 3526.2 kPa	555.05
300 K, 3965.8 kPa	555.93
300 K, 4482.8 kPa	556.96
300 K, 4980.2 kPa	557.93
300 K, 5467.8 kPa	558.87
300 K, 5953.2 kPa	559.79
300 K, 6460.3 kPa	560.72
300 K, 7025.2 kPa	561.79
320 K, 1063 kPa	522.78
320 K, 1503.5 kPa	524.1
320 K, 2072.9 kPa	525.74
320 K, 2548.7 kPa	527.08
320 K, 3037.4 kPa	528.43
320 K, 3521.6 kPa	529.72
320 K, 4027.5 kPa	531.05
320 K, 4496.4 kPa	532.26
320 K, 4946.7 kPa	533.39
320 K, 5450.3 kPa	534.62
320 K, 5960.5 kPa	535.86
320 K, 6511.5 kPa	537.15
320 K, 6995.3 kPa	538.27
340 K, 1494.6 kPa	493.98
340 K, 2007.1 kPa	496.16
340 K, 2499.6 kPa	498.13
340 K, 3002.8 kPa	500.07
340 K, 3503.8 kPa	501.94
340 K, 4023.8 kPa	503.83
340 K, 4507.3 kPa	505.51
340 K, 5017.1 kPa	507.23
340 K, 5520.7 kPa	508.89
340 K, 5998.3 kPa	510.42
340 K, 6512.9 kPa	512.03
340 K, 6962.7 kPa	513.39
360 K, 2008.5 kPa	460.57
360 K, 2503.6 kPa	463.81
360 K, 2997.5 kPa	466.82
360 K, 3502.9 kPa	469.71
360 K, 4027.6 kPa	472.55
360 K, 4532.2 kPa	475.11
360 K, 5024.7 kPa	477.51
360 K, 5482.2 kPa	479.63
360 K, 6006.8 kPa	481.96
360 K, 6485.4 kPa	484.01
360 K, 6987.7 kPa	486.08
380 K, 2517.9 kPa	417.11
380 K, 3027.5 kPa	423.54
380 K, 3511 kPa	428.79
380 K, 4014.9 kPa	433.63
380 K, 4487.2 kPa	437.71
380 K, 4990.6 kPa	441.69
380 K, 5519.1 kPa	445.53
380 K, 6019.7 kPa	448.91
380 K, 6503.3 kPa	451.96
380 K, 6952.1 kPa	454.64

Liquid
Details	mass density [kg/m3]	vapor or sublimation pressure [kPa]
240 K	617.17	40.1
260 K	595.32	94.6
280 K	572.74	197.8
300 K	548.27	368.6
320 K	521.48	632.5
340 K	491.87	1013.7
360 K	457.33	1541.6
380 K	413.34	2250.4
